The values below come from patent publication US20250197351A1, “C4-CARBOXYLIC ACID-S[…] DERIVATIVES AND METHODS OF USING” (priority 2022, published 2025).

Where “and” joins values, the source holds several entries; their conditions need not be identical. Equal entries are not always repeated.

The target in series [1] is T1, 5-HT2A receptor (5-HT2AR) (Mus musculus, UniProt P35363).
T1 construct: host or cells: C57BL/6 mice, in vivo (neuronal receptor)
The experiment in a line: Drug-induced Head Twitch Response (HTR). The class given is in vivo. Particulars: 1 mg/kg i.p., 15-to-30-minute window post-drug, relative to vehicle.

The target of series [2] is T2, 5-HT1A receptor (Homo sapiens, UniProt P08908).
T2 construct: host or cells: CHO-K1 (co-expressing Ga15)
T2 sequence (P08908 1-422): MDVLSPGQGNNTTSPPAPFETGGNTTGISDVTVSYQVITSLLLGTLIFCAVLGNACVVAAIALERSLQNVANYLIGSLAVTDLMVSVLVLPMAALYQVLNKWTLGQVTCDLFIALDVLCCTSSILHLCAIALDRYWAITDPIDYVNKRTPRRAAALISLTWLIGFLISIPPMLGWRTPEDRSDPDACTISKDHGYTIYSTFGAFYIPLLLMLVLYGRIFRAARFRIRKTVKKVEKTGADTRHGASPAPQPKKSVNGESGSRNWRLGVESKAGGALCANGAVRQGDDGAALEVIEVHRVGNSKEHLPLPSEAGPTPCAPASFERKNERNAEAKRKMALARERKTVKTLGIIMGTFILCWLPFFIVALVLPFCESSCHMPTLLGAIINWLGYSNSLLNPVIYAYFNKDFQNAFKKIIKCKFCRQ
The experiment in a line: cAMP-Glo assay of 5-HT1A receptor modulation, CHO-K1/5-HT1A/Ga15 (+5-HT1A) vs CHO-K1/Ga15 (−5-HT1A) cells. It is filed as cell-based. Conditions: +5-HT1A vs −5-HT1A CHO-K1 cells; 4 μM forskolin; increasing ligand concentration.

The nature of series [3]: Mouse pharmacokinetic (PK) study, parent compound and psilocin metabolite in plasma. It is filed as in vivo. Conditions: for Plasma concentration of C(XX): LLOQ 0.25 ng/mL; for Plasma concentration: parent C(XX), BLQ = below 0.25 ng/mL; for AUC0-tlast/Dose of C(XX) / Cmax/Dose of C(XX) / AUC0-inf/Dose of C(XX): plasma. An excerpt: Briefly, the procedure was as follows. […] 19, 2022.

Where [4] appears, read: 3 mg/kg oral C(XX), individual mice, 3 mg/kg.
[5] abbreviates: 10 mg/kg oral C(XX), individual mice, 10 mg/kg.
Setting [6] is: mouse, prodrug 1 mg/kg i.v., 8 h, individual animals, BLQ = below 0.2 ng/mL.
Where [7] appears, read: mouse, prodrug 1 mg/kg p.o. (psilocybin: 1.56 mg/kg), 8 h, individual animals, BLQ = below 0.2 ng/mL.
[8] abbreviates: mouse, prodrug 1 mg/kg p.o. (psilocybin: 1.56 mg/kg), 24 h, individual animals, BLQ = below 0.2 ng/mL.
Where [9] appears, read: mouse, prodrug 3 mg/kg p.o., 24 h, individual animals, BLQ = below 0.2 ng/mL.
[10] abbreviates: mouse, prodrug 10 mg/kg p.o., 24 h, individual animals, BLQ = below 0.2 ng/mL.

T1 sequence (P35363 whole entry): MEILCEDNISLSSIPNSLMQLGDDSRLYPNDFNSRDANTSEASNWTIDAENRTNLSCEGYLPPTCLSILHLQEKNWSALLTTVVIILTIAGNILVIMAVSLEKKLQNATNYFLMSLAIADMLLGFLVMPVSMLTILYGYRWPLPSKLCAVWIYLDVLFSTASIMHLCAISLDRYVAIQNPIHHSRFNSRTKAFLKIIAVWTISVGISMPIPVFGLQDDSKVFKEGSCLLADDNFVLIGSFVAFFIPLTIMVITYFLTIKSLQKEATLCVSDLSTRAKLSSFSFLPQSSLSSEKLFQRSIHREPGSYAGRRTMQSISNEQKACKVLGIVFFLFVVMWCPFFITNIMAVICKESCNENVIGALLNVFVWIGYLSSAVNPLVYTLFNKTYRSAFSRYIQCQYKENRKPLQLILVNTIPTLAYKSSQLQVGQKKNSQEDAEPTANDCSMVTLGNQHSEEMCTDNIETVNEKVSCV

For `CN(C)CCc1c[nH]c2cccc(OC(=O)c3cccc4c3OCCO4)c12` [C(XX)], the “Head Twitch Response (HTR) incidence” value in series [1] is reported as “Elevated incidences of HTR”. Besides, the “5-HT1A receptor modulation (reduction of forskolin-induced cAMP)” value in series [2] is recorded as “significant receptor modulation”. Also, the “Plasma concentration of psilocin” value in series [3] (1 mg/kg i.v. C(XX), 8 h, individual mice, LLOQ 0.5 ng/mL) is recorded as “BLQ”; in series [3] (1 mg/kg oral C(XX), 24 h, individual mice, LLOQ 0.5 ng/mL), “BLQ”; in series [3] (3 mg/kg oral C(XX), 24 h, individual mice, LLOQ 0.5 ng/mL), “BLQ”; in series [3] (10 mg/kg oral C(XX), 24 h, individual mice, LLOQ 0.5 ng/mL) it was “BLQ”. The “Plasma concentration of C(XX)” value in series [3] (3 mg/kg oral C(XX), 0.25 h, individual mice) is 1.72 ng/mL; in series [3] (3 mg/kg oral C(XX), 0.5 h, individual mice) it was 1.13 ng/mL; in series [3] (3 mg/kg oral C(XX), 4 h, individual mice), “No Peak (2×) and BLQ”; in series [3] (3 mg/kg oral C(XX), 6 h, individual mice) it was “No Peak and BLQ (2×)”; in series [3] (3 mg/kg oral C(XX), 8 h, individual mice) it was “No Peak and BLQ (2×)”; in series [3] (3 mg/kg oral C(XX), 24 h, individual mice) it was “No Peak”. Moreover, the “Plasma concentration of C(XX)” value in series [3] (10 mg/kg oral C(XX), 0.25 h, individual mice) is given as 10.3 ng/mL; in series [3] (10 mg/kg oral C(XX), 2 h, individual mice), 1.08 ng/mL; in series [3] (10 mg/kg oral C(XX), 4 h, individual mice), “BLQ”; in series [3] (10 mg/kg oral C(XX), 6 h, individual mice), “BLQ”; in series [3] (10 mg/kg oral C(XX), 8 h, individual mice), “BLQ”; in series [3] (10 mg/kg oral C(XX), 24 h, individual mice), “No Peak”. Moreover, the “F of C(XX)” value in series [3] (3 mg/kg oral C(XX), individual mice) is 0.816% and 1.08% and 0.962%; in series [3] (3 mg/kg oral C(XX), mean), 0.953 ± 0.132%. Moreover, the Plasma concentration in series [3] (1 mg/kg i.v., 2 h, each animal, 1 mg/kg) was 1.14 ng/mL; in series [3] (1 mg/kg i.v., 6 h, each animal), “BLQ”; in series [3] (1 mg/kg i.v., 8 h, each animal, 1 mg/kg) it was “BLQ and No (2×)”; in series [3] (1 mg/kg p.o., 2 h, each animal) it was “BLQ”; in series [3] (1 mg/kg p.o., 4 h, each animal), “BLQ”; in series [3] (1 mg/kg p.o., 6 h, each animal, 1 mg/kg) it was “No Peak (2×) and BLQ”. The Plasma concentration result is “No Peak (2×) and BLQ” in series [3] (1 mg/kg p.o., 8 h, each animal, 1 mg/kg); “No Peak” in series [3] (1 mg/kg p.o., 24 h, each animal). Besides, in series [3] (parent compound in plasma, 1 mg/kg i.v., each animal, 1 mg/kg), the AUC0-tlast/Dose is 48.0 kg·ng·h/mL/mg. Further, the “AUC0-tlast/Dose of C(XX)” value in series [3] (1 mg/kg i.v. C(XX), mean) is 52.8 ± 8.30 kg·ng·h/mL/mg; in series [3] (setting [4]), 0.406 kg·ng·h/mL/mg and 0.494 kg·ng·h/mL/mg and 0.474 kg·ng·h/mL/mg; in series [3] (3 mg/kg oral C(XX), mean) it was 0.458 ± 0.0457 kg·ng·h/mL/mg; in series [3] (setting [5]), 0.565 kg·ng·h/mL/mg and 0.499 kg·ng·h/mL/mg and 0.916 kg·ng·h/mL/mg; in series [3] (10 mg/kg oral C(XX), mean), 0.660 ± 0.224 kg·ng·h/mL/mg. Further, the “Cmax/Dose of C(XX)” value is 0.620 ± 0.0996 kg·ng/mL/mg in series [3] (1 mg/kg p.o. C(XX), mean); 0.497 kg·ng/mL/mg and 0.573 kg·ng/mL/mg and 0.643 kg·ng/mL/mg in series [3] (setting [4]); 0.571 ± 0.0734 kg·ng/mL/mg in series [3] (3 mg/kg oral C(XX), mean); 0.299 kg·ng/mL/mg and 0.912 kg·ng/mL/mg and 1.03 kg·ng/mL/mg in series [3] (setting [5]); 0.747 ± 0.392 kg·ng/mL/mg in series [3] (10 mg/kg oral C(XX), mean). The “AUC0-inf/Dose of C(XX)” value is 0.433 kg·ng·h/mL/mg and 0.572 kg·ng·h/mL/mg and 0.510 kg·ng·h/mL/mg in series [3] (setting [4]); 0.505 ± 0.0700 kg·ng·h/mL/mg in series [3] (3 mg/kg oral C(XX), mean).
Take `CN(C)CCc1c[nH]c2cccc(OC(=O)c3c(F)c(F)c(F)c(F)c3F)c12` [C(VI)]: the “Head Twitch Response (HTR) incidence” value in series [1] was “Elevated incidences of HTR”. The “5-HT1A receptor modulation (reduction of forskolin-induced cAMP)” value in series [2] is on record as “no receptor modulation at higher ligand concentrations”. The “Detection of parent compound in plasma” value in series [3] (mouse, any animals at any dose (i.v. and oral)) is “not detectable in any animals at any dose”. Moreover, the “Plasma concentration of psilocin” value in series [3] (setting [6]) was “BLQ”; in series [3] (setting [7]), “BLQ”; in series [3] (setting [8]) it was “BLQ and No Peak (2×)”; in series [3] (setting [9]), “BLQ (2×) and No Peak”; in series [3] (setting [10]), “BLQ”.
Turning to `NCCc1c[nH]c2ccc(O)cc12` [serotonin, reference compound], the “5-HT1A receptor modulation (reduction of forskolin-induced cAMP)” value in series [2] was “reduction in cAMP levels”.
For `COCCOCCOCC(=O)Oc1cccc2[nH]cc(CCN(C)C)c12` [C(III)], the “Head Twitch Response (HTR) incidence” value in series [1] was “Elevated incidences of HTR”. Also, in series [2], the “5-HT1A receptor modulation (reduction of forskolin-induced cAMP)” value is on record as “significant receptor modulation”.
With `COc1ccc(C(=O)Oc2cccc3[nH]cc(CCN(C)C)c23)cc1` [C(V)], in series [1], the “Head Twitch Response (HTR) incidence” value was “Elevated incidences of HTR”. Further, the “5-HT1A receptor modulation (reduction of forskolin-induced cAMP)” value in series [2] is recorded as “mild receptor modulation at higher ligand concentrations”. In addition, the “Detection of parent compound in plasma after i.v. administration” value in series [3] (mouse, 1 mg/kg i.v.) is listed as “only detectable in i.v. administered animals”. Moreover, the “Plasma concentration of parent compound” value is “BLQ” in series [3] (mouse, 1 mg/kg i.v., 0.25 h, individual animals, BLQ = below 0.5 ng/mL (C(V)), 1 mg/kg); “BLQ and No Peak (2×)” in series [3] (mouse, 1 mg/kg i.v., 0.5 h, individual animals, BLQ = below 0.5 ng/mL (C(V)), 1 mg/kg); “No Peak” in series [3] (mouse, 1 mg/kg i.v., 1 h, individual animals); “No Peak” in series [3] (mouse, 1 mg/kg i.v., 2 h, individual animals); “No Peak” in series [3] (mouse, 1 mg/kg i.v., 4 h, individual animals); “No Peak” in series [3] (mouse, 1 mg/kg i.v., 6 h, individual animals). In addition, the “Plasma concentration of parent compound” value in series [3] (mouse, 1 mg/kg i.v., 8 h, individual animals) is listed as “No Peak”. Further, in series [3] (mouse, orally administered, any dose (1, 3, 10 mg/kg)), the “Detection of parent compound in plasma after oral administration” value is listed as “not detectable”. Further, the “Plasma concentration of psilocin” value was “BLQ” in series [3] (setting [6]); “BLQ” in series [3] (setting [7]); “No Peak and BLQ (2×)” in series [3] (setting [8]); “No Peak and BLQ (2×)” in series [3] (setting [9]); “BLQ (2×) and No Peak” in series [3] (setting [10]).
`COC(=O)c1cccc(C(=O)Oc2cccc3[nH]cc(CCN(C)C)c23)c1` [C(XLIII)]: in series [2], the “5-HT1A receptor modulation (reduction of forskolin-induced cAMP)” value is “receptor modulation at higher ligand concentrations”.
As for `CN(C)CCc1c[nH]c2cccc(OC(=O)c3cccc(C(=O)Oc4cccc5[nH]cc(CCN(C)C)c45)c3)c12` [C(VII)], the “Head Twitch Response (HTR) incidence” value in series [1] was “Elevated incidences of HTR”. The “5-HT1A receptor modulation (reduction of forskolin-induced cAMP)” value in series [2] is listed as “no significant receptor modulation”.
